Like-named read-outs stand apart in the source and are kept apart here.
How the values were obtained:
[1] = tested on: Key Broadleaf Weed and Crop Species; assay: Post-emergent Test II herbicidal activity (Table 5); type: in vivo; conditions: post-emergence, 336 h, post-emergent, 14 days after application; for pest or weed control at 66 g/ha: 66 g ai/ha; for pest or weed control at 132 g/ha: 132 g ai/ha
How it was run: (§1)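 Spray rates: a highest rate plus ½×, ¼×, ⅛×, 1/16×, all delivered at 187 L/ha to plants at the first–second true leaf stage. Readout is a visual percent injury score at 14 d, where 100 means complete kill.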

[2] = tested on: Key Grass and Sedge Weeds as well as Grass Crops; assay: Post-emergent Test II herbicidal activity (Table 6); type: in vivo; conditions: post-emergence, 336 h; for pest or weed control at 66 g/ha: application rate 66 g ai/ha; for pest or weed control at 132 g/ha: application rate 132 g ai/ha
How it was run: as §1

[3] = ABUTH: velvetleaf (Abutilon theophrasti), read-out: Visual Growth Reduction (%) 14 Days After Application ABUTH
[4] = AMARE: redroot pigweed (Amaranthus retroflexus), read-out: Visual Growth Reduction (%) 14 Days After Application AMARE
[5] = BRSNN: oilseed-rape, canola (Brassica napus), read-out: Visual Growth Reduction (%) 14 Days After Application BRSNN
[6] = CHEAL: lambsquarters (Chenopodium album), read-out: Visual Growth Reduction (%) 14 Days After Application CHEAL
[7] = EPHHL: wild poinsettia (Euphorbia heterophylla), read-out: Visual Growth Reduction (%) 14 Days After Application EPHHL
[8] = HELAN: sunflower (Helianthus annuus), read-out: Visual Growth Reduction (%) 14 Days After Application HELAN
[9] = VIOTR: wild pansy (Viola tricolor), read-out: Visual Growth Reduction (%) 14 Days After Application VIOTR
[10] = Triticum aestivum, TRZSS (wheat), read-out: Visual Growth Reduction (%) 14 Days After Application, TRZSS
[11] = CYPES: yellow nutsedge (Cyperus esculentus), read-out: Visual Growth Reduction (%) 14 Days After Application, CYPES
[12] = DIGSA: crabgrass (Digitaria sanguinalis), read-out: Visual Growth Reduction (%) 14 Days After Application, DIGSA
[13] = ECHCG: barnyardgrass (Echinochloa crus-galli), read-out: Visual Growth Reduction (%) 14 Days After Application, ECHCG
[14] = ORYSA: rice (Oryza sativa), read-out: Visual Growth Reduction (%) 14 Days After Application, ORYSA
[15] = SETFA: giant foxtail (Setaria faberi), read-out: Visual Growth Reduction (%) 14 Days After Application, SETFA
[16] = SORVU: grain sorghum (Sorghum vulgare), read-out: Visual Growth Reduction (%) 14 Days After Application, SORVU
[17] = ZEAMX: maize, corn (Zea mays), read-out: Visual Growth Reduction (%) 14 Days After Application, ZEAMX

In the case of `COC(=O)c1nc(-c2ccc(I)c(F)c2)c(C)c(N)c1Cl` [Compound 79, Methyl 4-amino-3-chloro-6-(3-fluoro-4-iodophenyl)-5-methylpicolinate], the pest or weed control at 66 g/ha [1, 3] is reported as 85 to 94%, the pest or weed control at 132 g/ha [1, 3] is reported as 95 to 100% and the pest or weed control at 66 g/ha [1, 4] is reported as 60 to 74%. The pest or weed control at 132 g/ha [1, 4] was 75 to 84%, the pest or weed control at 66 g/ha [1, 5] was 85 to 94% and the pest or weed control at 132 g/ha [1, 5] was 85 to 94%. For the same compound, the pest or weed control at 66 g/ha [1, 6] was 95 to 100%, the pest or weed control at 132 g/ha [1, 6] was 95 to 100% and the pest or weed control at 66 g/ha [1, 7] was 0 to 29%. The pest or weed control at 132 g/ha [1, 7] was 0 to 29%, the pest or weed control at 66 g/ha [1, 8] was 95 to 100% and the pest or weed control at 132 g/ha [1, 8] was 95 to 100%. It also gave a pest or weed control at 66 g/ha [1, 9] of 0 to 29%, a pest or weed control at 132 g/ha [1, 9] of 0 to 29% and a pest or weed control at 66 g/ha [2, 10] of 0 to 29%. For the same compound, the pest or weed control at 132 g/ha [2, 10] was 30 to 44%, the pest or weed control at 66 g/ha [2, 11] was 95 to 100% and the pest or weed control at 132 g/ha [2, 11] was 95 to 100%. The pest or weed control at 66 g/ha [2, 12] was 60 to 74%, the pest or weed control at 132 g/ha [2, 12] was 60 to 74% and the pest or weed control at 66 g/ha [2, 13] was 60 to 74%. The pest or weed control at 132 g/ha [2, 13] was 60 to 74%, the pest or weed control at 66 g/ha [2, 14] was 0 to 29% and the pest or weed control at 132 g/ha [2, 14] was 0 to 29%. The pest or weed control at 66 g/ha [2, 15] was 75 to 84%, the pest or weed control at 132 g/ha [2, 15] was 75 to 84% and the pest or weed control at 66 g/ha [2, 16] was 60 to 74%. The pest or weed control at 132 g/ha [2, 16] was 75 to 84%, the pest or weed control at 66 g/ha [2, 17] was 60 to 74% and the pest or weed control at 132 g/ha [2, 17] was 60 to 74%.

Reference: US9113629B2, “4-amino-6-(4-substituted-phenyl)-picolinates and 6-amino-2-(4-substituted-phenyl)-pyrimidine-4-carboxylates and their use as herbicides” (DOW AGROSCIENCES LLC, priority 2013, dated 2015)
